Key:
SHP-77 = assay: Growth inhibition of SHP-77 small cell lung cancer cells; assay type: cell-based; conditions: 24 h drug treatment, crystal violet
Source text: SHP-77 small cell lung cancer cells were also of interest because they express modest amounts of both enzymes. Inhibition of the growth of cardiomyocytes was used as a measure of cardiotoxicity, and inhibition of the growth of Vero cells, green monkey kidney cells, was again used as another measure of toxicity to normal cells.

[1] = system: SK-HEP-1 liver cancer cells; assay: Drug uptake by SK-HEP-1 cells, flow cytometry; assay type: cell-based; conditions: in the presence of fetal bovine serum
Procedure: Uptake of pentyl PABC-Doxaz and Dox by multidrug resistant MCF-7/Adr breast cancer cells and SK-HEP-1 liver cancer cells in the presence of fetal bovine serum was determined by flow cytometry using drug fluorescence as a measure of drug in cells.

[2] = Functional measure of hydrolysis: pre-hydrolysis in RPMI medium or human serum, then growth of MCF-7/Adr cells; assay type: cell-based; conditions: read out by growth of MCF-7/Adr cells; for half-life at 10 µM: RPMI 1640 medium, RPMI 1640, 37° C., estimated from FIG. 5A, read-out: Half-life in cell culture media
Procedure: Hydrolysis of Doxaz or DoxF in RPMI medium was performed by dissociating the cells with trypsin/EDTA, counting and then suspending the cells in growth media to a concentration of 5×10^3 cells/mL. This cell suspension was dispensed in 200 μL aliquots (1000 cells/well) into the inside wells of 96-well tissue culture plates. Plates were then incubated for 24 h at 37° C. in a humidified atmosphere of 5% CO2, and 95% air. The medium was replaced with 180 μL of growth medium prior to addition of the drug. RPMI media (no serum added) was divided into 5 mL aliquots in conical vials and heated to 37° C. in a constant temperature bath. Doxaz and DoxF were dissolved in DMSO at a concentration of 1 mM equivalents. The concentration was then corrected by measuring the solution absorbance at 480 nm (ε=11,500 M^−1 cm^−1). Drug solution (50 μl) was added to an individual conical vial and the drug was allowed to hydrolyze (at 10 μM) for 0, 10, 20, 30, 45, 60, 75 or 90 min. Experiments were performed such that all hydrolysis times would end simultaneously. After hydrolysis, 20 μL of the drug solution was added to a lane of wells on the 96-well plate to give a final concentration of 1 μM equivalents (sum of Doxorubicin, Doxaz and/or DoxF) for treatment of cells. Additionally, two lanes were treated with 20 μL of growth medium containing 1% sterile DMSO for a control. The cells were incubated at 37° C. for 3 h, at which time the drug solutions were replaced with 200 μL of fresh growth media. The cells were then incubated for 5 days, and the extent of colony formation was determined using a crystal violet staining assay measuring optical density at 588 and 770 nm.
Hydrolysis of DoxF in RPMI medium or 100% human serum was performed as described above except drug hydrolysis was performed at 1 μM equivalents and drug treatment was at 100 nM equivalents. During drug treatment, the medium was either 90% RPMI/10% FBS or 90% RPMI/10% human serum. During cell growth, the medium was 90% RPMI/10% FBS. […]

[3] = Uptake of pentyl carbamate relative to Dox, flow cytometry, with and without fetal bovine serum; assay type: cell-based; conditions: 10% fetal bovine serum, flow cytometry, 3 h
Procedure: Uptake of the pentyl carbamate relative to uptake of Dox was measured by flow cytometry, monitoring fluorescence of the Dox fluorophore as a measure of drug in cells. The measurements were performed over a period of 3 h in the presence and absence of fetal bovine serum, and the results are shown in FIG. 4. […] Further, the presence of 10% fetal bovine serum decreased the uptake of doxorubicin and the pentyl carbamate by about 25%. The more rapid uptake of the pentyl carbamate in the presence and absence of serum probably reflects its increased hydrophobicity relative to that of doxorubicin which is a cation at physiological pH. Increased hydrophobicity may also be the explanation for the effect of serum on the uptake of the carbamate; namely, the carbamate binds to serum proteins reducing drug uptake.

human plasmin = human plasmin (Homo sapiens, UniProt P00747); assay: Plasmin activation of prodrug and release of Doxaz (HPLC); assay type: biochemical; conditions: human, human plasmin; 37° C.; read-out: Half-life in the presence of plasmin
human plasmin, sequence (P00747 581-810 limits assumed): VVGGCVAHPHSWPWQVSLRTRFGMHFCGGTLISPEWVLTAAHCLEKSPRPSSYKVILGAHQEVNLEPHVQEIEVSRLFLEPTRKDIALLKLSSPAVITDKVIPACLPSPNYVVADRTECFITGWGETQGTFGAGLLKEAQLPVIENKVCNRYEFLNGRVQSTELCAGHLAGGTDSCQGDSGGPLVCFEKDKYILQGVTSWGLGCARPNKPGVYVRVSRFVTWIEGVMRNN
human plasmin, sequence (P00747 97-580 partner limits assumed): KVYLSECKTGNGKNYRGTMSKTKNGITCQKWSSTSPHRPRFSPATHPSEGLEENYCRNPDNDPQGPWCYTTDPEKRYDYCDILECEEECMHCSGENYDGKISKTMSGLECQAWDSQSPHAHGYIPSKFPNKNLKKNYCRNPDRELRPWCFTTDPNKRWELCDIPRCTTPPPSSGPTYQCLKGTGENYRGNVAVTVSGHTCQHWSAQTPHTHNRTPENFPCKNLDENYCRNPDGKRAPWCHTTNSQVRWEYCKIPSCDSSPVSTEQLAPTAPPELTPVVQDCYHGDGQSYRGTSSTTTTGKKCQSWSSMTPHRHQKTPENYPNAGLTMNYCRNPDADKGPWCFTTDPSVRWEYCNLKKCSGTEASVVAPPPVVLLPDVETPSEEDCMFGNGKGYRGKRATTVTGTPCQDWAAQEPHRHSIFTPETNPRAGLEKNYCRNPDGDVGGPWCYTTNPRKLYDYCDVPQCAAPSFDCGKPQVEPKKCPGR
Procedure: Both Formulas IV and V were incubated with 15 μg/ml human plasmin and monitored by HPLC at 37° C. Just 4 min after the addition of plasmin, 20 percent of compound 10 was converted to Doxaz and roughly 50% of that Doxaz had hydrolyzed to Doxorubicin. Within 23 minutes, nearly all of the prodrug was converted to Doxaz and subsequently hydrolyzed to Doxorubicin.

With `CCCCCOC(=O)Nc1ccc(COC(=O)N2COC3C(C)OC(OC4CC(O)(C(=O)CO)Cc5c(O)c6c(c(O)c54)C(=O)c4c(OC)cccc4C6=O)CC32)cc1` (centres unmarked) [Pentyl PABC-Doxaz, Pentyl 4-(N-doxazolidinylcarbonyloxymethyl)phenylcarbamate] the “Cell growth inhibition IC50, SHP-77” value (SHP-77) was −7.3 ± 0.1 log of molar concentrations and the “Uptake relative to Dox, SK-HEP-1” value [1] was “taken up much better”.
`COc1cccc2c1C(=O)c1c(O)c3c(c(O)c1C2=O)C[C@@](O)(C(=O)CO)C[C@@H]3O[C@H]1C[C@@H]2NCO[C@@H]2[C@H](C)O1` [Doxaz, Doxazolidine] showed a half-life at 10 µM [2] of ~1 min.
`COc1cccc2c1C(=O)c1c(O)c3c(c(O)c1C2=O)C[C@@](O)(C(=O)CO)C[C@@H]3OC1CC2C(OCN2CN2COC3C(C)OC(O[C@H]4C[C@](O)(C(=O)CO)Cc5c(O)c6c(c(O)c54)C(=O)c4c(OC)cccc4C6=O)CC32)C(C)O1` (some centres unmarked) [DoxF, Doxoform, reference compound] gave a half-life at 1 µM ([2]; 100% human serum, 100% pooled human serum, 37° C., start 100 nM equivalents, estimated from FIG. 5B) of ~3 min and a half-life at 10 µM [2] of ~1.5 min.
For `COc1cccc2c1C(=O)c1c(O)c3c(c(O)c1C2=O)C[C@@](O)(C(=O)CO)C[C@@H]3O[C@H]1C[C@H](N)[C@H](O)[C@H](C)O1` [Doxorubicin, reference compound], the IC50 (SHP-77; Homo sapiens, SHP77) was 126 nM and the “Decrease of uptake by 10% fetal bovine serum” value [3] was “about 25%”.
In the case of `COc1cccc2c1C(=O)c1c(O)c3c(c(O)c1C2=O)C[C@@](O)(C(=O)CO)C[C@@H]3O[C@H]1C[C@H]2[C@H](OCN2C(=O)OCc2ccc(NC(=O)[C@H](CCCCN)NC(=O)[C@H](Cc3ccccc3)NC(=O)[C@@H](C)N)cc2)[C@H](C)O1` [Formula IV, D-Ala-L-Phe-L-Lys-p-aminobenzyloxycarbonyl-Doxaz], the half-life (human plasmin) is reported as ~6 min.
